Results from patent publication US11878049B1, “Mitapivat therapy and modulators of cytochrome P450” (Agios Pharmaceuticals, Inc., priority 2019, dated 2024).

Columns and labels:
Type in all cases: in vitro ADME
P-gp = P-gp (Homo sapiens, UniProt P08183); assay: Transporter inhibition
[1] = target: T1, breast cancer resistance protein (BCRP) (Homo sapiens, UniProt Q9UNQ0); assay: Transporter inhibition
T1 sequence (Q9UNQ0 1-655): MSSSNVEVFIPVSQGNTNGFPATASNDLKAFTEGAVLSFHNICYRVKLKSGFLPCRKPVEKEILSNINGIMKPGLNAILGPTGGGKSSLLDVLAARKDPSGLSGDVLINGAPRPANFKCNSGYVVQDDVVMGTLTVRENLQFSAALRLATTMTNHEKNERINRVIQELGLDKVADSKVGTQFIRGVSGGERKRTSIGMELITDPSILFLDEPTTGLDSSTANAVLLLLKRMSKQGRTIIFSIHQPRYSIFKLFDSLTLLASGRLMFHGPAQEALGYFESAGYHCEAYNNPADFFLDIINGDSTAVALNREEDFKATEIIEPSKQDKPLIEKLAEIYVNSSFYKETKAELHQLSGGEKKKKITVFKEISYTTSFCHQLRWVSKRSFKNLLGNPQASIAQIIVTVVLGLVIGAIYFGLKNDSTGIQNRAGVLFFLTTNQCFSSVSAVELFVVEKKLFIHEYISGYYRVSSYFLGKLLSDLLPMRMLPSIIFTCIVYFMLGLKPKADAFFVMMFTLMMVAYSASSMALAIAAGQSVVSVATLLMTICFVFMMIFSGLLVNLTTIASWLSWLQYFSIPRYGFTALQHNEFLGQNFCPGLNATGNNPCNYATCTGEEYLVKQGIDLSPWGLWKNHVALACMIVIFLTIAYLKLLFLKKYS

CYP2C9 = CYP2C9 (Homo sapiens, UniProt P11712); assay: CYP enzyme inhibition
CYP2C9, sequence (P11712 whole entry): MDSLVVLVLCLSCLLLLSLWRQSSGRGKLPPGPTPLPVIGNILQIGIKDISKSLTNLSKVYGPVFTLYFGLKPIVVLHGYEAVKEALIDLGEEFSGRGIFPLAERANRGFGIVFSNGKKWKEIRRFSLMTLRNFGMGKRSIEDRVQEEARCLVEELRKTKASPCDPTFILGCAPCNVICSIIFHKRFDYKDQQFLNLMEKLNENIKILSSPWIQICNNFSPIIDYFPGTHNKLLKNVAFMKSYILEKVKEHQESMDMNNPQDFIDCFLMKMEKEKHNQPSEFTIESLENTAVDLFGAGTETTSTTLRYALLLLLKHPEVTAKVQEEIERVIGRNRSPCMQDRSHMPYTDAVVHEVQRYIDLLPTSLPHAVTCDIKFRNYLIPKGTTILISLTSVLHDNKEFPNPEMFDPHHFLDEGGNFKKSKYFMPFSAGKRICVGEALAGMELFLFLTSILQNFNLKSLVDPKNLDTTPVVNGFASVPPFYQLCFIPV

CYP2C19 = CYP2C19 (Homo sapiens, UniProt P33261); assay: CYP enzyme inhibition
CYP2C19, sequence (P33261 whole entry): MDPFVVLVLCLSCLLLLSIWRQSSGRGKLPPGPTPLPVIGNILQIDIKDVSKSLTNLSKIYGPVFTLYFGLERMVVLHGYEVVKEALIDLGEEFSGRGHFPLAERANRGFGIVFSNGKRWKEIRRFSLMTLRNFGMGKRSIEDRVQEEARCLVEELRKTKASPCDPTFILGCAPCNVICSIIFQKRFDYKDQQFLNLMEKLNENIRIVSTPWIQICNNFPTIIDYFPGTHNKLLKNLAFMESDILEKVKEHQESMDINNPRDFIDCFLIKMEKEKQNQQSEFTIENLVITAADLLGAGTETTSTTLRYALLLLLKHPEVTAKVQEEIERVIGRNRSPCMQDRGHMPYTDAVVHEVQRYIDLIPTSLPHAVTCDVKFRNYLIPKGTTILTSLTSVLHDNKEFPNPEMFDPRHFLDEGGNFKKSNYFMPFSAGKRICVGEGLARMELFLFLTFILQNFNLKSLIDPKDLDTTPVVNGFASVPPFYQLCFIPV

CYP1A2 = target: T2, CYP1A2 (Homo sapiens, UniProt P05177); assay: CYP-enzyme phenotyping using human liver microsomes and recombinant CYP enzymes
T2 construct: CYP-enzyme phenotyping using human liver microsomes and recombinant CYP enzymes; from tissue; host or cells: human liver microsomes
T2 sequence (P05177 whole entry): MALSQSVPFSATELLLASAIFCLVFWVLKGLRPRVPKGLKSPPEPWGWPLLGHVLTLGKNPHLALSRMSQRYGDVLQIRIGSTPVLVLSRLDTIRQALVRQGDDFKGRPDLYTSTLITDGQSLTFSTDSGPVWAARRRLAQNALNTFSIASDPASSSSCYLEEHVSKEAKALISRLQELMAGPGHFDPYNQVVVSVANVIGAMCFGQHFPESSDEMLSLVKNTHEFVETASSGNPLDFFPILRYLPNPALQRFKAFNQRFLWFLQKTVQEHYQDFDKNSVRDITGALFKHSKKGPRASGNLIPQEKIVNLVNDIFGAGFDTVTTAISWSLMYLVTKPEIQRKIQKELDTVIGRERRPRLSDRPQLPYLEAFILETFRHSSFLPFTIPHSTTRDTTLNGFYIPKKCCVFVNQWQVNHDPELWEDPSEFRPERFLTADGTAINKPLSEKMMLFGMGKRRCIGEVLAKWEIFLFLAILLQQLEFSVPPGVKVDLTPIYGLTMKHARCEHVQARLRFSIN

P-gp, sequence (P08183 whole entry): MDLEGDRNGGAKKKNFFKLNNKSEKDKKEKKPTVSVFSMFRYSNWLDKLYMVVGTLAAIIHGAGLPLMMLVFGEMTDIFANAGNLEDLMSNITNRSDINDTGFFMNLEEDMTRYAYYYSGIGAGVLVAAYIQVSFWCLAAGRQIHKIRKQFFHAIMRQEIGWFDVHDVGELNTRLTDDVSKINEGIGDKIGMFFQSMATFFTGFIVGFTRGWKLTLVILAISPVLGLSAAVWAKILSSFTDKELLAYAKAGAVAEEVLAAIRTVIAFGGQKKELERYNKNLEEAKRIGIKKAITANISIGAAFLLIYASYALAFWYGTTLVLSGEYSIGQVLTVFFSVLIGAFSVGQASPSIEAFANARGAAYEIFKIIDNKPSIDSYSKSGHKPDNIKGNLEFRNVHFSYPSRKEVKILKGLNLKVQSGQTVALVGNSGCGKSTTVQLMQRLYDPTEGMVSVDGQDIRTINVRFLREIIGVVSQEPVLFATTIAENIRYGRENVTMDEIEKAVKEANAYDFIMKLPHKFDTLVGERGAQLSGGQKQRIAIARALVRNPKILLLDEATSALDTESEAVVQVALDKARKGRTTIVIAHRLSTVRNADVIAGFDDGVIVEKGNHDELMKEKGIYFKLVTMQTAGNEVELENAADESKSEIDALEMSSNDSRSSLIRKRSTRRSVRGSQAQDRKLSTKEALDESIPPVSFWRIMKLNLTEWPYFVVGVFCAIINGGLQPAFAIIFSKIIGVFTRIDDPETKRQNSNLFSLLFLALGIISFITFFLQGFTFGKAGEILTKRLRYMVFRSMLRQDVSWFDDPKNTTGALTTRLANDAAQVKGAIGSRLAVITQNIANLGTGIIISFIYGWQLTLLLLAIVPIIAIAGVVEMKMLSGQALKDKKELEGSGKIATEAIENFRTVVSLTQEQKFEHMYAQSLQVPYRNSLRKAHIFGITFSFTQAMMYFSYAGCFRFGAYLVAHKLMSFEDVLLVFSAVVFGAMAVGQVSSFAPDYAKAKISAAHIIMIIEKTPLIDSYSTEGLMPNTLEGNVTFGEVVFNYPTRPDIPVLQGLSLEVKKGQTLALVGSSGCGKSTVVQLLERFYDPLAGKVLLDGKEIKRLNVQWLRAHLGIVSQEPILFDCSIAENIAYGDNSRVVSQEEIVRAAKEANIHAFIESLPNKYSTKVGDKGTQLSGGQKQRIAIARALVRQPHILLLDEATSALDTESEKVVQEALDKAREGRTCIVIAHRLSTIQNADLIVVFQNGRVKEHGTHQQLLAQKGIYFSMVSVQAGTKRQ

Row | Inhibitor for P-gp (P-gp) | Inhibitor for BCRP [1] | Inhibition of CYP2C9 (CYP2C9) | Inhibition of CYP2C19 (CYP2C19) | Contribution of CYP1A2 to metabolism (CYP1A2) | SMILES
1 | not an inhibitor | not an inhibitor | mild inhibitor | mild inhibitor |  | O=C(c1ccc(NS(=O)(=O)c2cccc3cccnc23)cc1)N1CCNCC1 [Metabolite]
2 |  |  |  |  | minor contributions | O=C(c1ccc(NS(=O)(=O)c2cccc3cccnc23)cc1)N1CCN(CC2CC2)CC1 [Mitapivat, N-(4-(4-(cyclopropylmethyl)piperazine-1-carbonyl)phenyl)quinoline-8-sulfonamide]
